Experimental data reported in US20250186405A1, “Compound For Use In Treating Narcolepsy” (Alkermes, Inc., priority 2023, published 2025).
Read-outs that look alike come from different tables or passages of the source.

Key:
[1] = Oral PK of micronized Compound A, powder-in-capsule vs tablet, two particle sizes; assay type: in vivo, male Beagle dogs; conditions: male, Beagle, dog, plasma
Experimental: A non-GLP study was conducted in male Beagle dogs to compare the Compound A plasma exposure of powder-in-capsule (PIC) versus tablet formulation after the administration of single oral doses of micronized Compound A. Two different particle sizes were tested with the following objectives: • 1. To compare the oral plasma exposure of micronized Compound A (12 micron Dv90 particle size) after the administration of 20 mg of Compound A powder-in-capsule vs 20 mg of Compound A in four tablets of 5 mg each. • 2. To compare the oral plasma exposure of 12 micron and 32 micron Dv90 particle size of 20 mg micronized Compound A administered in four tablets of 5 mg each. • 3. To evaluate the dose-linearity of Compound A by comparing the oral plasma exposure of Compound A following the oral administration of 5 mg (one tablet) versus 20 mg (four tablets) of Compound A.
The pharmacokinetic analysis of concentrations and concentration-time data are summarized in tabular form, below, using descriptive statistics. Concentration data were summarized according to nominal sampling times. Plasma concentrations below the lower limit of assay quantification (BLOQ) were not included in the computation of mean concentration values. Pharmacokinetic parameters for individual animals were estimated using the non-compartmental analysis (NCA) using Dotmatics Studies tool.
The absolute extravascular bioavailability (F %) were calculated using the following formula: F %= [(AUC0-∞(extravascular)×Dose(intravenous(IV)))/(AUC0-∞(intravenous(IV))×Dose(extravascular))]×100 Where the “extravascular” represents any of subcutaneous (SC), intraperitoneal (IP) or oral (PO) route of administration.
The F % is calculated for each subject in case the same animals were administered with both intravenous and extravascular dose, then the average is reported with the standard error; otherwise, F % is calculated using the mean values without reporting a standard deviation in case the subjects of intravenous and extravascular profiles are different. Pharmacokinetic parameters were summarized by dosing group, route of administration, formulation, etc. using descriptive statistics.

healthy adult subjects = test: Part 3 RelBA with FE: safety; assay type: in vivo, human; conditions: 10 mg
Experimental: Part 3 compared the relative bioavailability (RelBA) of Compound A between a tablet formulation and the powder-in-capsule formulation. In addition, the food effect (FE) on the bioavailability of Compound A was assessed following administration of tablet formulation. Dose levels were as follows:
The Part 3 (RelBA with FE) evaluation was conducted using a 2-sequence, 3-period crossover study design in approximately 12 subjects. Subjects in Part 3 were randomized 1:1 to receive 1 of 2 sequences consisting of 3 periods with up to 72 hours of washout between treatments. The first 2 periods were dosed under fasted state and the third period was dosed in a fed state (high-fat meal).
In treatment period(s) under the fed condition, following overnight fast, all subjects were given a high-fat breakfast. Within 30 minutes of starting the consumption of the breakfast, the assigned treatment was administered. […] There was a 72-hour washout period between the treatments.

[2] = Part 2 MAD: plasma pharmacokinetics, once daily for 10 days; assay type: in vivo, human; conditions: for Cmax / AUC(0-t) / concentration at 8 h / Tmax / half-life / Vd/F: oral; for AUC(0-t): read-out: AUC0-24, ss; for concentration at 8 h: read-out: C8 (concentration at 8-hour postdose); for Vd/F: read-out: Vz/F
Experimental: Part 2 of the study is a MAD evaluation in healthy subjects consisting of 4 cohorts: Cohorts 1-4 received powder-in-capsule or matching placebo. Dose levels were as follows:
Blood samples (up to 5 mL per sample) were collected for PK analysis of Compound A and its metabolite(s). The actual time of sample collection was recorded. The PK samples of the subjects randomized to placebo treatment were not analyzed. Any remaining plasma PK samples were used to explore the presence of any additional metabolites and/or biomarkers.
Plasma and urine concentrations of Compound A and its metabolite(s) were measured using a validated high-performance liquid chromatography with tandem mass spectrometry.
The plasma PK parameters of Compound A and its metabolite(s) were determined from the plasma concentration-time profiles for all evaluable subjects. Actual sampling times, rather than scheduled sampling times, were used in all computations involving sampling times. The below lower limit of quantitation concentrations were set to zero prior to PK parameter estimation.
The PK population was used for summaries of plasma and urine Compound A and its metabolite(s) concentrations and for analyses, summaries, and listing of PK parameters. Accumulation ratio (Day 10/Day 1) for Cmax and AUC0-24 was estimated with 90% CIs using a linear fixed effects model on log-transformed parameters. Dose effect was assessed using a linear fixed effects model on log-transformed t1/2. Dose proportionality was assessed using a power model on Cmax and AUC0-24 on Day 1 and Day 10 separately. Within-subject and total standard deviations for log-transformed Cmax and AUC0-24 were estimated within a linear mixed effects framework.

[3] = human, plasma, 3 mg, Day 1, geometric mean
[4] = human, plasma, 3 mg, Day 10, geometric mean
[5] = human, plasma, 8 mg, Day 1, geometric mean
[6] = human, plasma, 8 mg, Day 10, geometric mean
[7] = human, plasma, 15 mg, Day 1, geometric mean
[8] = human, plasma, 15 mg, Day 10, geometric mean
[9] = human, plasma, 25 mg, Day 1, geometric mean
[10] = human, plasma, 25 mg, Day 10, geometric mean

CS(=O)(=O)N[C@H]1CCCN2C(=O)COc3ccccc3C3CCC(CC3)OCC12 (stereo partly drawn) [Compound A, N-[(4S,4aR,7α,10α)-1,2,3,4,4a,5,7,8,9,10,16,17-dodecahydro-17-oxo-7,10-ethanopyrido[1,2-d][1,7,4]benzodioxaazacyclotridecin-4-yl]methanesulfonamide]
bioavailability ([1]; 5 mg, one 5 mg tablet, 12 micron Dv90, read-out: Oral bioavailability (F %)): 55%
bioavailability ([1]; 20 mg, 20 mg PIC and 4 tablets of 5 mg, 12 and 32 micron Dv90, read-out: F % (absolute oral bioavailability), range): 26 to 29%
bioavailability ([1]; 20 mg, four 5 mg tablets (20 mg), 12 micron Dv90, read-out: Oral bioavailability (F %)): 29%
Tmax ([1]; 20 mg PIC and 4 tablets of 5 mg, 12 and 32 micron Dv90): ~3 h
AUC(0-inf) ([1]; 20 mg PIC and 4 tablets of 5 mg, 12 and 32 micron Dv90, read-out: AUC0-∞, range): 1570 to 1730 ng·h/mL
Cmax ([1]; 20 mg PIC and 4 tablets of 5 mg, 12 and 32 micron Dv90, read-out: Cmax, range): 230 to 270 ng/mL
half-life ([1]; 20 mg PIC and 4 tablets of 5 mg, 12 and 32 micron Dv90, read-out: terminal t1/2 (converted)): ~3 h
Tolerability (healthy adult subjects; fed and fasted conditions): well tolerated
subjects reporting at least one AE (of 12) (healthy adult subjects; three administrations): 11
Accumulation ratio (Day 10/Day 1) AUC0-24 ([2]; 3 mg): 1.36
Accumulation ratio (Day 10/Day 1) Cmax ([2]; 3 mg): 1.68
CL/F ([2]; 3 mg, Day 10, geometric mean): 62.0 L/h
Ctrough ([2]; 3 mg, Day 10, geometric mean): 0.495 ng/mL
Accumulation ratio (Day 10/Day 1) AUC0-24 ([2]; 8 mg): 1.36
Accumulation ratio (Day 10/Day 1) Cmax ([2]; 8 mg): 1.38
CL/F ([2]; 8 mg, Day 10, geometric mean): 55.7 L/h
Ctrough ([2]; 8 mg, Day 10, geometric mean): 2.07 ng/mL
Accumulation ratio (Day 10/Day 1) AUC0-24 ([2]; 15 mg): 1.23
Accumulation ratio (Day 10/Day 1) Cmax ([2]; 15 mg): 1.15
CL/F ([2]; 15 mg, Day 10, geometric mean): 84.4 L/h
Ctrough ([2]; 15 mg, Day 10, geometric mean): 2.06 ng/mL
Accumulation ratio (Day 10/Day 1) AUC0-24 ([2]; 25 mg): 1.02
Accumulation ratio (Day 10/Day 1) Cmax ([2]; 25 mg): 1.32
CL/F ([2]; 25 mg, Day 10, geometric mean): 108 L/h
Ctrough ([2]; 25 mg, Day 10, geometric mean): 4.51 ng/mL
Cmax [2, 3]: 5.6 ng/mL
AUC(0-t) [2, 3]: 35.5 ng·h/mL
concentration at 8 h [2, 3]: 1.21 ng/mL
Tmax ([2]; human, plasma, 3 mg, Day 1, median, read-out: Tmax): 1.75 h
Cmax [2, 4]: 9.38 ng/mL
half-life [2, 4]: 9.63 h
AUC(0-t) [2, 4]: 48.4 ng·h/mL
concentration at 8 h [2, 4]: 1.39 ng/mL
Tmax ([2]; human, plasma, 3 mg, Day 10, median, read-out: Tmax): 1.5 h
Cmax [2, 5]: 16 ng/mL
AUC(0-t) [2, 5]: 104 ng·h/mL
concentration at 8 h [2, 5]: 3.89 ng/mL
Tmax ([2]; human, plasma, 8 mg, Day 1, median, read-out: Tmax): 1.75 h
Cmax [2, 6]: 22.1 ng/mL
half-life [2, 6]: 7.66 h
AUC(0-t) [2, 6]: 141 ng·h/mL
concentration at 8 h [2, 6]: 4.6 ng/mL
Tmax ([2]; human, plasma, 8 mg, Day 10, median, read-out: Tmax): 1.75 h
Cmax [2, 7]: 25.2 ng/mL
concentration at 8 h [2, 7]: 3.41 ng/mL
Tmax ([2]; human, plasma, 15 mg, Day 1, median, read-out: Tmax): 1.5 h
Cmax [2, 8]: 28.9 ng/mL
half-life [2, 8]: 14 h
concentration at 8 h [2, 8]: 4.62 ng/mL
Tmax ([2]; human, plasma, 15 mg, Day 10, median, read-out: Tmax): 1.75 h
Tmax ([2]; human, plasma, 25 mg, 3, 8, 15 and 25 mg, both Day 1 and Day 10 (range 1.0 to 6.0), read-out: median Tmax): 1.75 h
Cmax [2, 9]: 28 ng/mL
concentration at 8 h [2, 9]: 7.35 ng/mL
Tmax ([2]; human, plasma, 25 mg, Day 1, median, read-out: Tmax): 1.25 h
Cmax [2, 10]: 36.9 ng/mL
half-life [2, 10]: 15.9 h
concentration at 8 h [2, 10]: 7.39 ng/mL
Tmax ([2]; human, plasma, 25 mg, Day 10, median, read-out: Tmax): 1.5 h
Vd/F [2, 4]: 862 L
Vd/F [2, 6]: 616 L
Vd/F [2, 8]: 1700 L
Vd/F [2, 10]: 2480 L
half-life at 10 days ([2]; human, plasma, po, Day 10, 3 to 25 mg, read-out: terminal half-life following multiple oral dosing, range): 8 to 16 h
steady state expected to be achieved by ([2]; once daily dosing, from half-life): ≤ 4 days
